Measured values from ChEMBL document CHEMBL3627608, “Crystal structures of human RIP2 kinase catalytic domain complexed with ATP-competitive inhibitors: Foundations for understanding inhibitor selectivity” (Bioorg Med Chem, 2015).

Columns and labels:
[1] = biological target: Ribosomal protein S6 kinase beta-1 (Homo sapiens) (UniProt P23443); assay: Inhibition of RPS6KB1 (unknown origin) at 10 uM after 120 mins P33 radiolabeled kinase activity assay
[2] = biological target: T1, Dual specificity mitogen-activated protein kinase kinase 3 (Homo sapiens) (UniProt P46734); assay: Inhibition of MEK3 (unknown origin) at 10 uM after 120 mins P33 radiolabeled kinase activity assay
T1 sequence (whole entry): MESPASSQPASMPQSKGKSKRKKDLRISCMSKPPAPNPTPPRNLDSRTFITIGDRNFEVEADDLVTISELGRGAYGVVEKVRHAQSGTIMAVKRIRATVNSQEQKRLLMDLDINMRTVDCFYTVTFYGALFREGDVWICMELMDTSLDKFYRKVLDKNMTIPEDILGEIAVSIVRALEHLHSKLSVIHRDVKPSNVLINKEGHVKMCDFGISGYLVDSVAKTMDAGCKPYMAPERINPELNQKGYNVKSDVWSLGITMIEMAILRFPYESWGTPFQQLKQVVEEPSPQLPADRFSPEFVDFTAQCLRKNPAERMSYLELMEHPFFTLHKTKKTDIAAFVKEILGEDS

[3] = biological target: Casein kinase II subunit alpha (Homo sapiens) (UniProt P68400); assay: Inhibition of CK2alpha (unknown origin) at 10 uM after 120 mins P33 radiolabeled kinase activity assay
[4] = biological target: T2, Myosin light chain kinase (Homo sapiens) (UniProt Q32MK0); assay: Inhibition of MYLK3 (unknown origin) at 10 uM after 120 mins P33 radiolabeled kinase activity assay
T2 sequence (whole entry): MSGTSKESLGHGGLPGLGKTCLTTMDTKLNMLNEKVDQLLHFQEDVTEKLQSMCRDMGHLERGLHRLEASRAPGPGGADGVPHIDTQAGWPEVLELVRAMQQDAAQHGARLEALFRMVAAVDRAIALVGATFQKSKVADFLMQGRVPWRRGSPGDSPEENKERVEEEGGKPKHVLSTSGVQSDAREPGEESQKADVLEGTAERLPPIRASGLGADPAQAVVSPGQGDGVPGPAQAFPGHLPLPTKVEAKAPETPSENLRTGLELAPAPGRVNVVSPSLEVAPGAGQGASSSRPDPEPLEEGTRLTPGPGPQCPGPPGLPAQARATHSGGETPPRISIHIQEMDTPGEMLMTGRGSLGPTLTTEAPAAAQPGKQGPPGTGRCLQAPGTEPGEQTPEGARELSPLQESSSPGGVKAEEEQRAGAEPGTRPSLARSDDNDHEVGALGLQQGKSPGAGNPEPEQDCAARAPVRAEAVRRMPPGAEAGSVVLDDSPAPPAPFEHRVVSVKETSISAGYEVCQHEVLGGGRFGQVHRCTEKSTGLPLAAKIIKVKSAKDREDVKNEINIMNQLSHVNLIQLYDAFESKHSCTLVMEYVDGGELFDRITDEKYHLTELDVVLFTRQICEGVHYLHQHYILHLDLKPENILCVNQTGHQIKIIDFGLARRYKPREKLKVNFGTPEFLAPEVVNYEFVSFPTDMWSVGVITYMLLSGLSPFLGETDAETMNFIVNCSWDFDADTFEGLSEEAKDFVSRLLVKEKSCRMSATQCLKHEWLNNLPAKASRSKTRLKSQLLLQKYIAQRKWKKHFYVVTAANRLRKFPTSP

[5] = biological target: T3, Homeodomain-interacting protein kinase 4 (Homo sapiens) (UniProt Q8NE63); assay: Inhibition of HIPK4 (unknown origin) at 10 uM after 120 mins P33 radiolabeled kinase activity assay
T3 sequence (whole entry): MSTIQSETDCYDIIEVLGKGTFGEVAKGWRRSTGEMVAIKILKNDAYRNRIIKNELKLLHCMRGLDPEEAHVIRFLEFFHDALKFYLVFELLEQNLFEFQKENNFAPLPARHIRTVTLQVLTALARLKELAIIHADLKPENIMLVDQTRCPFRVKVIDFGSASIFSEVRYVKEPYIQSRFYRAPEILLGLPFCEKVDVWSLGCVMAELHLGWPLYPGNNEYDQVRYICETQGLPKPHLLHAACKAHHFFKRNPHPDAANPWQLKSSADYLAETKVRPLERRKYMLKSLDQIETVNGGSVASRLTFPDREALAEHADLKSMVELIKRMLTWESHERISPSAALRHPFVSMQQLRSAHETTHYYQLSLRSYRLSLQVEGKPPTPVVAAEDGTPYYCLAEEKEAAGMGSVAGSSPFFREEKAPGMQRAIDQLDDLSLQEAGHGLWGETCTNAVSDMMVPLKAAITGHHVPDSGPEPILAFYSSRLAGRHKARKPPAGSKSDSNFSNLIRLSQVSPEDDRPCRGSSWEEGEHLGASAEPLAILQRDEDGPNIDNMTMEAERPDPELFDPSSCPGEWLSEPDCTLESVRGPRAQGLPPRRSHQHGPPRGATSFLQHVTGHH

Ribosomal protein S6 kinase beta-1 (Homo sapiens), sequence (P23443 whole entry, looked up): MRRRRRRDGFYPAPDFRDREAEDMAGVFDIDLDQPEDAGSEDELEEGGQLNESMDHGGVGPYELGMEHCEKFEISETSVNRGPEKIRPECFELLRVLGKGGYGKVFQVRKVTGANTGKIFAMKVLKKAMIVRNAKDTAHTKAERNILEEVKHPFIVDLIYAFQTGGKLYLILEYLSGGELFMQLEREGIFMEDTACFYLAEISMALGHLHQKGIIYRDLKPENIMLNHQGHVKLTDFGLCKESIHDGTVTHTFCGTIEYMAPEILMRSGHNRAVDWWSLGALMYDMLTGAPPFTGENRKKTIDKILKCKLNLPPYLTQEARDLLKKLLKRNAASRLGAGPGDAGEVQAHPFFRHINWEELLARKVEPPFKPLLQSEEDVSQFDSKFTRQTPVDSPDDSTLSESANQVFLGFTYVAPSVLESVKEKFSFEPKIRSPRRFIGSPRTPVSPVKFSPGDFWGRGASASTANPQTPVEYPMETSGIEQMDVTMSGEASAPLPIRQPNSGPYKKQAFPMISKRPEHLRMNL
Casein kinase II subunit alpha (Homo sapiens), sequence (P68400 whole entry, looked up): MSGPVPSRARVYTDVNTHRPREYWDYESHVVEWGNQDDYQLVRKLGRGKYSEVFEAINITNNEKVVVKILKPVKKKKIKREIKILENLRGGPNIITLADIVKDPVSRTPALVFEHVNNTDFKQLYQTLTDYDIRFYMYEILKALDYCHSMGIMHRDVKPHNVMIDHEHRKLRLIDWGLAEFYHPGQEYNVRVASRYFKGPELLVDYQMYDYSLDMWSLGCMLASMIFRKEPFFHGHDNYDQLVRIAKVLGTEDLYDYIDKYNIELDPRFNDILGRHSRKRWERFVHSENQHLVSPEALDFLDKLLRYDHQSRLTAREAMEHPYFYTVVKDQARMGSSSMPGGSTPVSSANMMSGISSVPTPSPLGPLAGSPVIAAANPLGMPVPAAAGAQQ

CS(=O)(=O)c1cccc(Nc2nccc(-c3sc(N4CCOCC4)nc3-c3cccc(NS(=O)(=O)c4c(F)cccc4F)c3)n2)c1
inhibition [1]: 48.5% | inhibition [2]: 21.2% | inhibition [3]: 19.7% | inhibition [4]: -2.12% | inhibition [5]: 97%

COCCNC(=O)c1ccc2c(c1)nc(-c1cnc(-c3ccc(Cl)cc3)[nH]1)n2CCOC
inhibition [1]: 6.1% | inhibition [2]: 0.04% | inhibition [3]: 8.6% | inhibition [4]: -0.74% | inhibition [5]: -9.28%

CC(C)(C)c1cc(NC(=O)Nc2ccc(Oc3ccncc3)cc2)no1
inhibition [1]: 84.2% | inhibition [2]: 3.51% | inhibition [3]: 20% | inhibition [4]: -2.01% | inhibition [5]: 96.7%
